PMC8342802, “A Novel Bacteriocin From Lactobacillus Pentosus ZFM94 and Its Antibacterial Mode of Action” (Frontiers in Nutrition, 2021)
Where no end group is shown, it is not given here. [ ]: non-standard residue; d: D form. Abu = CC[C@H](N)C(=O)O; Dhb = C/C=C(\N)C(=O)O; Dha = C=C(N)C(=O)O

Tests used:
[1] = binding to lipid II, agar well-diffusion after mixing with lipid II; format: cell-based, Micrococcus luteus; conditions: 10 μm peptide with 20 μm lipid II, 4°C for 1 h, indicator M. luteus 10209
Method: Studies have shown that lipid II was the target of nisin ([25]), and the combination of lipid II and nisin can mediate the formation of pores. Nisin and pentocin ZFM94 were mixed with lipid II, respectively. The final concentration of nisin or pentocin ZFM94 was 10 μm, while the concentration of lipid II was 20 μm. The mixture was maintained at 4°C for 1 h. The changes in the antibacterial activity were detected by the agar well-diffusion method. Micrococcus luteus 10209 was used as the indicator. Then, the size of the inhibition zone was observed.

[2] = cited from earlier work
Method: It retained 80.37% of its original antibacterial activity after heating at 80°C for 30 min. The antibacterial activity of pentocin ZFM94 was stable at pH 2–7. […] Pentocin ZFM94 was sensitive to trypsin and pepsin, but not to amylase, lysozyme, lipase, and ribonuclease A. Studies have reported that leuconocin S and carnocin 5 ...

Question: For “nisin (I[Dhb]AI[Dha]LC[Abu]PGCK[Abu]GALMGCNMK[Abu]A[Abu]CHCSIHV[Dha]K; thioether (positions not given here); not fully specified (residues 7, 11, 19, 26, 28, bridges); also: lantibiotic: thioether bridges and dehydrated residues, places not given here; UniProt P13068 24-57, looked up)”, which “antibacterial effect after mixing with lipid II” value [1] is on record?
Answer: Its value is “disappeared”.

Question: What about the “activity at pH close to 7” value [2] of the same substance?
Answer: Its value is “inactivated”.
